Results published in patent US10681909B2, “Herbicidal triazoles” (FMC Corporation, priority 2014, dated 2020).

Key:
ducksalad = assay: Test B flooded paddy test; format: in vivo, Heteranthera limosa; settings: Heteranthera limosa, 360 h, 125 g ai/ha, applied to paddy water at 2-leaf stage, visual rating after 13 to 15 d, scale 0 (no effect) to 100 (complete control), read-out: Plant response rating, Ducksalad, Flood
In short: (§1)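 Pots were flooded to 3 cm above the soil at treatment, and compounds were applied directly into the paddy water. That depth was held throughout. After 13 to 15 d in a greenhouse, plants were rated visually against untreated controls.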

velvetleaf = assay: Test A postemergence; format: in vivo, Abutilon theophrasti; settings: Abutilon theophrasti, post-emergence, 240 h, 0 to 100 scale (0 no effect, 100 complete control), approx. 10 d, read-out: Plant response rating, Velvetleaf; for pest or weed control at 125 g/ha: 125 g ai/ha; for pest or weed control at 500 g/ha: 500 g ai/ha
In short: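 Pre- and postemergence spray tests in a loam soil–sand mixture: seeded soil received a directed spray, while established seedlings 2–10 cm high at the one- to two-leaf stage were treated over the top. Compounds were carried in non-phytotoxic solvent with surfactant.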

barnyardgrass = assay: Test B flooded paddy test; format: in vivo, Echinochloa crus-galli; settings: Echinochloa crus-galli, 360 h, 125 g ai/ha, applied to paddy water at 2-leaf stage, visual rating after 13 to 15 d, scale 0 (no effect) to 100 (complete control), read-out: Plant response rating, Barnyardgrass, Flood
In short: as §1

sedge, umbrella = assay: Test B flooded paddy test; format: in vivo, Cyperus difformis; settings: Cyperus difformis, 360 h, 125 g ai/ha, applied to paddy water at 2-leaf stage, visual rating after 13 to 15 d, scale 0 (no effect) to 100 (complete control), read-out: Plant response rating, Sedge, Umbrella, Flood
In short: as §1

Cn1nc(-c2ccc(F)cc2)nc1C(O)c1ccnc(C(F)(F)F)c1 (stereo not drawn) [Compound 14, α-[3-(4-fluorophenyl)-1-methyl-1H-1,2,4-triazol-5-yl]-2-(trifluoromethyl)-4-pyridinemethanol]
pest or weed control at 125 g/ha (ducksalad): 0% | pest or weed control at 125 g/ha (velvetleaf): 30% | pest or weed control at 500 g/ha (velvetleaf): 50% | pest or weed control at 125 g/ha (barnyardgrass): 0% | pest or weed control at 125 g/ha (sedge, umbrella): 0%

CCCn1nc(-c2ccc(F)cc2)nc1Cc1ccnc(C(F)(F)F)c1 [Compound 17, 4-[[3-(4-fluorophenyl)-1-propyl-1H-1,2,4-triazol-5-yl]methyl]-2-(trifluoromethyl)pyridine]
pest or weed control at 125 g/ha (ducksalad): 70% | pest or weed control at 125 g/ha (velvetleaf): 90% | pest or weed control at 500 g/ha (velvetleaf): 100% | pest or weed control at 125 g/ha (barnyardgrass): 10% | pest or weed control at 125 g/ha (sedge, umbrella): 80%
